Data: the supplement of paper PMC8882468

Experiments:
Test in all cases: CTG-3D luminescence at 96 h relative to day-0 seeding control (ratio to day 0); higher = more growth / less cytotoxicity; PDxO 3D drug screen, 96 h, CTG-3D normalised to day-0 seeding control.
[1] = test system: HCI-024 (organoid from a breast cancer xenograft)
[2] = test system: HCI-005.E2 (organoid from a breast cancer xenograft with a HER2-positive history)
[3] = test system: HCI-012 (organoid from a breast cancer xenograft)
[4] = test system: HCI-017.E2 (organoid from an ER-positive breast cancer xenograft)
[5] = test system: HCI-001 (organoid from a triple-negative breast cancer xenograft)
[6] = test system: HCI-003.E2 (organoid from an ER-positive breast cancer xenograft)

CC(=O)O[C@H]1C(=O)[C@@]2(C)[C@H]([C@H](OC(=O)c3ccccc3)[C@]3(O)C[C@H](OC(=O)[C@H](O)[C@@H](NC(=O)c4ccccc4)c4ccccc4)C(C)=C1C3(C)C)[C@]1(OC(C)=O)CO[C@@H]1C[C@@H]2O [paclitaxel]
CTG-3D luminescence at 96 h
Details | 12.5 pM | 0.00025 µM | 0.005 µM | 0.1 µM | 1 µM | 10 µM | 100 µM | 625 fM
[1], days in culture: 105 | 1.8 | 1.38 | 1.01 | 1.4 | 1.57 | 1.68 | 1.11 | 1.85
[1], days in culture: 122 | 2.07 | 2.67 | 1.5 | 1.34 | 1.62 | 2.3 | 1.13 | 2.79
[1], days in culture: 163 | 1.62 | 1.72 | 1.29 | 1.68 | 1.65 | 2.37 | 1.26 | 1.56
[3], days in culture: 143 | 1.61 | 1.85 | 0.96 | 0.518 | 0.54 | 0.829 | 0.769 | 1.71
[3], days in culture: 162 | 2.5 | 2.34 | 1.11 | 0.633 | 0.571 | 1.14 | 1.16 | 2.67
[3], days in culture: 201 | 1.12 | 0.271 | 0.477 | 0.241 | 0.609 | 0.237 | 1.01 | 0.564
[4], days in culture: 85 | 2.33 | 1.88 | 1.23 | 0.935 | 1.09 | 1.04 | 0.81 | 1.92
[5], days in culture: 240 | 1.49 | 1.15 | 0.619 | 0.709 | 0.952 | 0.995 | 1.03 | 1.1
[5], days in culture: 260 | 2.45 | 1.13 | 1.23 | 1.27 | 1.14 | 1.08 | 0.703 | 1.55
[5], days in culture: 269 | 1.48 | 1.52 | 0.95 | 0.728 | 0.749 | 0.987 | 0.92 | 1.27
[5], days in culture: 327 | 1.26 | 0.725 | 1.04 | 0.686 | 1.06 | 0.714 | 0.685 | 1.53
[5], days in culture: 346 | 1.29 | 1.24 | 1.16 | 0.568 | 0.791 | 0.655 | 0.947 | 1.18
[5], days in culture: 364 | 1.37 | 1.15 | 1.31 | 0.657 | 0.699 | 0.681 | 0.715 | 1.49

CTG-3D luminescence at 96 h
Details | 12.5 pM | 0.00025 µM | 0.005 µM | 0.1 µM | 1 µM | 10 µM | 100 µM | 625 fM
[2] | 1.56 | 1.54 | 1.53 | 1.34 | 1.49 | 1.85 | 1.39 | 1.97
[4] | 1.06 | 1.2 | 1.2 | 1.2 | 1.17 | 1.23 | 1.3 | 1.35
[6] | 0.723 | 0.764 | 0.601 | 0.625 | 0.634 | 0.787 | 0.992 | 0.813

C[C@]12CC[C@@H]3c4ccc(O)cc4C[C@@H](CCCCCCCCC[S+]([O-])CCCC(F)(F)C(F)(F)F)[C@H]3[C@@H]1CC[C@@H]2O (stereo partly specified) [fulvestrant]
CTG-3D luminescence at 96 h
Details | 12.5 pM | 0.00025 µM | 0.005 µM | 0.1 µM | 1 µM | 10 µM | 100 µM | 625 fM
[1], days in culture: 105 | 1.45 | 1.55 | 1.32 | 1.36 | 1.34 | 2.02 | 1.67 | 1.87
[1], days in culture: 122 | 2.08 | 2.51 | 2.43 | 1.84 | 1.77 | 2.65 | 1.86 | 2.53
[1], days in culture: 163 | 1.83 | 1.9 | 1.55 | 2.47 | 2.05 | 1.88 | 2.09 | 1.91
[3], days in culture: 143 | 2.28 | 2.33 | 2.23 | 2.41 | 2.43 | 2.43 | 2.25 | 1.92
[3], days in culture: 162 | 2.65 | 2.28 | 1.8 | 3.05 | 2.77 | 3.17 | 2.71 | 2.92
[3], days in culture: 201 | 2.77 | 2.3 | 1.52 | 1.85 | 2.21 | 1.48 | 2.1 | 1.53
[4], days in culture: 85 | 2.84 | 3.05 | 2.96 | 2.18 | 1.78 | 1.41 | 1.89 | 2.52
[5], days in culture: 240 | 1.44 | 1.04 | 1.03 | 0.906 | 1.68 | 1.06 | 1.55 | 1.65
[5], days in culture: 260 | 2.56 | 1.23 | 1.9 | 1.86 | 1.59 | 1.46 | 1.1 | 1.68
[5], days in culture: 269 | 1.44 | 1.59 | 1.41 | 1.34 | 1.45 | 1.7 | 1.69 | 1.43
[5], days in culture: 327 | 1.73 | 1.68 | 2.18 | 1.97 | 1.64 | 1.23 | 1.65 | 2.08
[5], days in culture: 346 | 1.34 | 1.3 | 1.11 | 1.33 | 1.42 | 1.16 | 1.38 | 1.11
[5], days in culture: 364 | 1.63 | 1.34 | 1.37 | 0.918 | 0.954 | 1.28 | 1.02 | 1.75

CTG-3D luminescence at 96 h
Details | 12.5 pM | 0.00025 µM | 0.005 µM | 0.1 µM | 1 µM | 10 µM | 100 µM | 625 fM
[2] | 1.53 | 2.5 | 1.79 | 2.34 | 1.61 | 1.5 | 1.34 | 1.72
[4] | 1.94 | 2.16 | 2.05 | 1.92 | 1.53 | 1.4 | 1.55 | 1.88
[6] | 2.4 | 2.42 | 2.09 | 2.42 | 1.9 | 1.54 | 1.41 | 2.03
